Measurements from the Deep4Chem optical property database.

Test: photoluminescence quantum yield (fraction); solvent given as SMILES
[1] = in O=P(c1ccccc1)(c1ccccc1)c1ccccc1Oc1ccccc1P(=O)(c1ccccc1)c1ccccc1
[2] = in O=P(c1ccccc1)(c1ccccc1)c1ccc2oc3ccc(P(=O)(c4ccccc4)c4ccccc4)cc3c2c1

Compound: CCC1=C(C)C2=Cc3c4ccccc4c4n3[B-](c3ccc5cc6ccccc6cc5c3)(Oc3ccccc3-4)[N+]2=C1C (stereo unspecified)
- photoluminescence quantum yield (in CC#N): 0.66
- photoluminescence quantum yield (in CCCCCC): 0.75
- photoluminescence quantum yield (in Cc1ccccc1): 0.68
- photoluminescence quantum yield (in ClCCl): 0.76

Compound: CCOC(=O)c1c2c3c(ccc(F)c3c3cc4c(cc13)[Si](C)(C)O[Si]4(C)C)N(C)C2=O
- photoluminescence quantum yield (in CC#N): 0.47

Compound: CCCCc1cc(-c2cccc(COC)c2)oc1-c1cccc(-c2cc(CCCC)c(-c3cccc(-c4oc(-c5cccc(-c6oc(-c7cccc(COC)c7)cc6CCCC)c5)cc4CCCC)c3)o2)c1
- photoluminescence quantum yield (in ClC(Cl)Cl): 0.23

Compound: c1ccc2c(-c3ccncc3)c3c(nc2c1)-c1cc2c(cc1CC3)-c1nc3ccccc3c(-c3ccncc3)c1CC2
- photoluminescence quantum yield (in ClC(Cl)Cl): 0.961

Compound: CCCCCCCCn1c(=O)c2cc3c(-c4ccc(N(c5ccccc5)c5ccccc5)cc4)c4cc5c(=O)n(CCCCCCCC)c(=O)c5cc4c(-c4ccc(N(c5ccccc5)c5ccccc5)cc4)c3cc2c1=O
- photoluminescence quantum yield (in ClC(Cl)Cl): 0.03

Compound: O=S1(=O)c2ccc(-c3c4ccccc4cc4ccccc34)cc2-c2cc(-c3c4ccccc4cc4ccccc34)ccc21
- photoluminescence quantum yield (in C1CCCCC1): 0.39
- photoluminescence quantum yield (in CC#N): 0.13
- photoluminescence quantum yield (in ClCCl): 0.24

Compound: CCCCCCCCCCCCN1C(=O)c2ccc3c4ccc5c6c(ccc(c7ccc(c2c37)C1=O)c64)C(=O)N(CCCCCCCCCCCC)C5=O
- photoluminescence quantum yield (in CN(C)C=O): 1

Compound: COc1ccc2c(c1)-c1cc3c(cc1[Si]2(c1ccccc1)c1ccccc1)-c1ccccc1[Si]3(c1ccccc1)c1ccccc1
- photoluminescence quantum yield (in ClCCl): 0.4

Compound: CCOC(=O)COc1ccc(/C=C/C2=C3C(C)=CC(C)=[N+]3[B-](F)(F)n3c2c2ccccc2c3-c2[nH]c(C)cc2C)cc1
- photoluminescence quantum yield (in ClCCl): 0.01

Compound: CCCCC(CC)CN1C(=O)c2cccc3c(C#Cc4ccc(N(c5ccccc5)c5ccccc5)cc4)ccc(c23)C1=O (stereo unspecified)
- photoluminescence quantum yield (in C1CCCCC1): 0.66
- photoluminescence quantum yield (in C1CCOC1): 0.62
- photoluminescence quantum yield (in CC#N): 0.026
- photoluminescence quantum yield (in Cc1ccccc1): 0.89
- photoluminescence quantum yield (in ClC(Cl)Cl): 0.51

Compound: C1=Cc2nc1c(-c1cccs1)c1ccc([nH]1)c(-c1cccs1)c1nc(c(-c3cccs3)c3ccc([nH]3)c2-c2cccs2)C=C1
- photoluminescence quantum yield (in CN(C)C=O): 0.012
- photoluminescence quantum yield (in ClCCl): 0.0046

Compound: Cc1cc(C)c(B(c2c(C)cc(C)cc2C)c2cc3ccc4ccccc4c3c3c2ccc2ccccc23)c(C)c1
- photoluminescence quantum yield (in C1CCCCC1): 0.65
- photoluminescence quantum yield (in C1CCOC1): 0.73
- photoluminescence quantum yield (in CC#N): 0.58
- photoluminescence quantum yield (in ClC(Cl)Cl): 0.8
- photoluminescence quantum yield (in c1ccccc1): 0.89

Compound: F[B-]1(F)n2c(/C=C/c3ccc(C(=C(c4ccccc4)c4ccccc4)c4ccccc4)cc3)ccc2C(c2ccccc2)=C2C=CC(/C=C/c3ccc(C(=C(c4ccccc4)c4ccccc4)c4ccccc4)cc3)=[N+]21
- photoluminescence quantum yield (in C1CCOC1): 0.42

Compound: CN(C)c1cccc(/C=C/c2ncc(-c3ccc(OCc4ccccc4)c(OCc4ccccc4)c3)o2)c1
- photoluminescence quantum yield (in ClCCl): 0.37

Compound: CN(C)c1ccc(C#CC2=C3CCc4ccccc4C3=[O+][B-](F)(F)O2)cc1
- photoluminescence quantum yield (in ClCCl): 0

Compound: CN(C)CCCN1c2ccccc2CCc2ccccc21
- photoluminescence quantum yield (in CC#N): 0.012
- photoluminescence quantum yield (in CO): 0.01
- photoluminescence quantum yield (in O): 0.021

Compound: CCOC(=O)/N=c1/oc2ccc(OC)cc2cc1C#N
- photoluminescence quantum yield (in ClCCl): 0.047

Compound: c1ccc(-c2cnc3nn4ccccc4c3c2)cc1
- photoluminescence quantum yield (in C1CCOC1): 0.38

Compound: C(#Cc1ccc(N(c2ccc(C#Cc3ccc(-c4cc(-c5ccccc5)nc(-c5ccccc5)c4)cc3)cc2)c2ccc(C#Cc3ccc(-c4cc(-c5ccccc5)nc(-c5ccccc5)c4)cc3)cc2)cc1)c1ccc(-c2cc(-c3ccccc3)nc(-c3ccccc3)c2)cc1
- photoluminescence quantum yield (in C1CCOC1): 0.12
- photoluminescence quantum yield (in Cc1ccccc1): 0.16

Compound: N#Cc1ccc(C#Cc2ccc(C#Cc3ccccc3C#N)cc2C#N)cc1
- photoluminescence quantum yield (in ClC(Cl)Cl): 0.783

Compound: N#Cc1cc(C#N)c(-n2c3ccccc3c3cc(-c4cccc5c4c4ccccc4n5-c4cc(-n5c6ccccc6c6ccccc65)c(C#N)cc4C#N)ccc32)cc1-n1c2ccccc2c2ccccc21
- photoluminescence quantum yield [1]: 0.66

Compound: CC(C)(C)c1ccc(C2=Cc3cc4c(cc3P2(=O)c2ccccc2)C=C(c2ccc(C(C)(C)C)cc2)P4(=O)c2ccccc2)cc1 (stereo unspecified)
- photoluminescence quantum yield (in C1CCOC1): 0.44

Compound: Cc1nc2c(ccc3c2sc(/C=C/c2ccc(N(C)C)cc2)[n+]3C)s1
- photoluminescence quantum yield (in ClC(Cl)Cl): 0.02

Compound: COC(=O)c1cc(=O)n(C)c2cc(-c3ccccc3OC)sc12
- photoluminescence quantum yield (in CC#N): 0.61
- photoluminescence quantum yield (in ClCCl): 0.51

Compound: C=C(C)C(CN1C(=O)c2cccc3cccc(c23)C1=O)OO (stereo unspecified)
- photoluminescence quantum yield (in CCO): 0.002

Compound: F[B-]1(F)n2c(c(-c3ccccc3)c(-c3ccccc3)c2-c2ccccc2)C=C2C(c3ccccc3)=C(c3ccccc3)C(c3ccccc3)=[N+]21
- photoluminescence quantum yield (in C1CCOC1): 0.96

Compound: CC1(C)c2ccccc2N(c2ccc(-c3nc4cccc5c4n3-c3ccccc3C5(C)C)cc2)c2ccccc21
- photoluminescence quantum yield (in Cc1ccccc1): 0.34
- photoluminescence quantum yield [1]: 0.51

Compound: N#Cc1ccc(-n2c(-c3ccc(-c4ccc(-c5nc6c7ccccc7c7ccccc7c6n5-c5ccc(C#N)c6ccccc56)c5ccccc45)c4ccccc34)nc3c4ccccc4c4ccccc4c32)c2ccccc12
- photoluminescence quantum yield (in ClCCl): 0.9

Compound: Cc1ccc(-c2sc(/C(C#N)=C/c3ccc(C#N)cc3)nc2-c2ccc(Cl)cc2)cc1
- photoluminescence quantum yield (in CC#N): 0.11

Compound: CCc1ccc(-n2c3ccccc3c3cc4c(cc32)c2ccccc2n4-c2ccc(CC)s2)s1
- photoluminescence quantum yield (in ClC(Cl)Cl): 0.023

Compound: COc1ccc(C(=Cc2ccc(C=O)cc2)c2ccc(OC)cc2)cc1
- photoluminescence quantum yield (in C1CCOC1): 0.066

Compound: CC(C)[Si](C#Cc1c2ccccc2c(C#C[Si](C(C)C)(C(C)C)C(C)C)c2nc3c4ccccc4c(=O)c4ccccc4c3nc12)(C(C)C)C(C)C
- photoluminescence quantum yield (in ClCCl): 0.75

Compound: c1ccc2cc3c(cc2c1)-c1cccc2cc4ccccc4c-3c12
- photoluminescence quantum yield (in CCCCCCC): 0.52

Compound: COc1ccc2c(c1)c1cc(OC)ccc1c1c2c2c(C(=O)NC(C)(C)C)ccc(C(=O)NC(C)(C)C)c2c2c3ccc(OC)cc3c3cc(OC)ccc3c21
- photoluminescence quantum yield (in ClCCl): 0.1

Compound: Cc1cc(C)c(C2=C3C=C(/C=C/C(=O)OC(C)(C)C)C=[N+]3[B-](F)(F)n3c2ccc3N2CCCC2)c(C)c1
- photoluminescence quantum yield (in ClCCl): 0.57

Compound: c1ccc(-c2nc(-c3ccccc3)nc(-c3ccc(-n4c5ccccc5c5cc6c7ccccc7n7c8ccccc8c(c54)c67)cc3)n2)cc1
- photoluminescence quantum yield [2]: 0.68

Compound: Cc1ccc(-n2c(-c3ccc(N(c4ccc(-c5ccc(N(c6ccc(-c7nc8c9ccccc9c9ccccc9c8n7-c7ccc(C)cc7)cc6)c6ccc(-c7nc8c9ccccc9c9ccccc9c8n7-c7ccc(C)cc7)cc6)cc5)cc4)c4ccc(-c5nc6c7ccccc7c7ccccc7c6n5-c5ccc(C)cc5)cc4)cc3)nc3c4ccccc4c4ccccc4c32)cc1
- photoluminescence quantum yield (in ClCCl): 0.282

Compound: CCCCNC(=O)c1nc2c(N(C)C)nc(N(C)C)nc2n1Cc1ccccc1
- photoluminescence quantum yield (in C1COCCO1): 0.95
- photoluminescence quantum yield (in CC#N): 0.95
- photoluminescence quantum yield (in CO): 0.89
- photoluminescence quantum yield (in ClCCl): 0.87

Compound: CCC(C)(C)c1ccc(-c2ccc3c(c2)C(CCOC)(CCOC)c2cc(C(C)(C)CC)ccc2-3)cc1
- photoluminescence quantum yield (in C1CCCCC1): 0.71

Compound: O=c1c2cccc3cccc(c32)c2nc3ccccc3n12
- photoluminescence quantum yield (in ClCCl): 0.71

Compound: C[Si](C)(C)C#C[Si](c1c2ccccc2cc2ccccc12)(c1c2ccccc2cc2ccccc12)c1c2ccccc2cc2ccccc12
- photoluminescence quantum yield (in ClC(Cl)Cl): 0.04

Compound: N#Cc1cnc(-c2c3ccccc3cc3ccccc23)nc1
- photoluminescence quantum yield (in CCO): 0.07
- photoluminescence quantum yield (in ClCCl): 0.07

Compound: c1ccc(-c2nc(-c3ccccc3)nc(-c3cc(-n4c5ccccc5c5ccccc54)c(-n4c5ccccc5c5ncccc54)c(-n4c5ccccc5c5ccccc54)c3)n2)cc1
- photoluminescence quantum yield [2]: 0.79
